From ChEMBL document CHEMBL2046376, “Synthesis and antimicrobial activity of amide derivatives of polyether antibiotic-salinomycin” (2012)
In brackets after ≈: the same amount, converted by molar mass. Activity calls are given as the source filed them. No cut-off for these calls is given here.

Key:
Type in all cases: functional
Staphylococcus aureus [1] = assay: Antibacterial activity against hospital-acquired methicillin-resistant Staphylococcus aureus 401/10 after 18 hrs by twofold serial agar dilution technique; conditions: 401/10, 18 h
Staphylococcus aureus [2] = assay: Antibacterial activity against Staphylococcus aureus ATCC 29213 assessed as zone of inhibition at 400 ug/disc after 18 hrs by disc diffusion method; conditions: ATCC 29213, 18 h, read-out: DIZ
[3] = system: Staphylococcus epidermidis; assay: Antibacterial activity against Staphylococcus epidermidis ATCC 12228 assessed as zone of inhibition at 400 ug/disc after 18 hrs by disc diffusion method; conditions: ATCC 12228, 18 h, read-out: DIZ
Staphylococcus aureus [4] = assay: Antibacterial activity against hospital-acquired methicillin-resistant Staphylococcus aureus 451/11 after 18 hrs by twofold serial agar dilution technique; conditions: 451/11, 18 h
Staphylococcus aureus [5] = assay: Antibacterial activity against hospital-acquired methicillin-sensitive Staphylococcus aureus 442/11 after 18 hrs by twofold serial agar dilution technique; conditions: 442/11, 18 h
Staphylococcus aureus [6] = assay: Antibacterial activity against hospital-acquired methicillin-sensitive Staphylococcus aureus 443/11 after 18 hrs by twofold serial agar dilution technique; conditions: 443/11, 18 h
Staphylococcus aureus [7] = assay: Antibacterial activity against hospital-acquired methicillin-sensitive Staphylococcus aureus 445/11 after 18 hrs by twofold serial agar dilution technique; conditions: 445/11, 18 h
[8] = system: Staphylococcus epidermidis; assay: Antibacterial activity against Staphylococcus epidermidis ATCC 35984 after 18 hrs by twofold serial agar dilution technique; conditions: ATCC 35984, 18 h
Escherichia coli [9] = assay: Antibacterial activity against Escherichia coli NCTC 8196 after 18 hrs by twofold serial agar dilution technique
Staphylococcus aureus [10] = assay: Antibacterial activity against hospital-acquired methicillin-sensitive Staphylococcus aureus 447/11 after 18 hrs by twofold serial agar dilution technique; conditions: 447/11, 18 h
Staphylococcus aureus [11] = assay: Antibacterial activity against hospital-acquired methicillin-sensitive Staphylococcus aureus 441/11 after 18 hrs by twofold serial agar dilution technique; conditions: 441/11, 18 h
Candida albicans [12] = assay: Antifungal activity against Candida albicans ATCC 10231 after 24 hrs by twofold serial agar dilution technique
Pseudomonas aeruginosa [13] = assay: Antibacterial activity against Pseudomonas aeruginosa ATCC 27853 after 18 hrs by twofold serial agar dilution technique
Escherichia coli [14] = assay: Antibacterial activity against Escherichia coli ATCC 25922 after 18 hrs by twofold serial agar dilution technique
Staphylococcus aureus [15] = assay: Antibacterial activity against hospital-acquired methicillin-sensitive Staphylococcus aureus 449/11 after 18 hrs by twofold serial agar dilution technique; conditions: 449/11, 18 h
Candida parapsilosis = assay: Antifungal activity against Candida parapsilosis ATCC 22019 after 24 hrs by twofold serial agar dilution technique
Staphylococcus aureus [16] = assay: Antibacterial activity against Staphylococcus aureus NCTC 4163 after 18 hrs by twofold serial agar dilution technique; conditions: NCTC 4163, 18 h
Staphylococcus aureus [17] = assay: Antibacterial activity against hospital-acquired methicillin-resistant Staphylococcus aureus 482/11 after 18 hrs by twofold serial agar dilution technique; conditions: 482/11, 18 h
Pseudomonas aeruginosa [18] = assay: Antibacterial activity against Pseudomonas aeruginosa NCTC 6749 after 18 hrs by twofold serial agar dilution technique
Candida albicans [19] = assay: Antifungal activity against Candida albicans ATCC 90028 after 24 hrs by twofold serial agar dilution technique
[20] = system: Bordetella bronchiseptica; assay: Antibacterial activity against Bordetella bronchiseptica ATCC 4617 after 18 hrs by twofold serial agar dilution technique
Staphylococcus aureus [21] = assay: Antibacterial activity against Staphylococcus aureus NCTC 4163 assessed as zone of inhibition at 400 ug/disc after 18 hrs by disc diffusion method; conditions: NCTC 4163, 18 h, read-out: DIZ
Staphylococcus aureus [22] = assay: Antibacterial activity against Staphylococcus aureus ATCC 6538 after 18 hrs by twofold serial agar dilution technique; conditions: ATCC 6538, 18 h
Staphylococcus aureus [23] = assay: Antibacterial activity against hospital-acquired methicillin-resistant Staphylococcus aureus 481/11 after 18 hrs by twofold serial agar dilution technique; conditions: 481/11, 18 h
Proteus vulgaris = assay: Antibacterial activity against Proteus vulgaris NCTC 4635 after 18 hrs by twofold serial agar dilution technique
Staphylococcus aureus [24] = assay: Antibacterial activity against hospital-acquired methicillin-resistant Staphylococcus aureus 399/10 after 18 hrs by twofold serial agar dilution technique; conditions: 399/10, 18 h
Staphylococcus aureus [25] = assay: Antibacterial activity against hospital-acquired methicillin-sensitive Staphylococcus aureus 446/11 after 18 hrs by twofold serial agar dilution technique; conditions: 446/11, 18 h
Staphylococcus aureus [26] = assay: Antibacterial activity against hospital-acquired methicillin-sensitive Staphylococcus aureus 440/11 after 18 hrs by twofold serial agar dilution technique; conditions: 440/11, 18 h
Staphylococcus aureus [27] = assay: Antibacterial activity against Staphylococcus aureus ATCC 6538 assessed as zone of inhibition at 400 ug/disc after 18 hrs by disc diffusion method; conditions: ATCC 6538, 18 h, read-out: DIZ
Staphylococcus aureus [28] = assay: Antibacterial activity against hospital-acquired methicillin-resistant Staphylococcus aureus 394/10 after 18 hrs by twofold serial agar dilution technique; conditions: 394/10, 18 h
Staphylococcus aureus [29] = assay: Antibacterial activity against hospital-acquired methicillin-sensitive Staphylococcus aureus 448/11 after 18 hrs by twofold serial agar dilution technique; conditions: 448/11, 18 h
Staphylococcus aureus [30] = assay: Antibacterial activity against hospital-acquired methicillin-resistant Staphylococcus aureus 450/11 after 18 hrs by twofold serial agar dilution technique; conditions: 450/11, 18 h
Staphylococcus aureus [31] = assay: Antibacterial activity against Staphylococcus aureus ATCC 25923 after 18 hrs by twofold serial agar dilution technique; conditions: ATCC 25923, 18 h
[32] = system: Staphylococcus epidermidis; assay: Antibacterial activity against Staphylococcus epidermidis ATCC 12228 after 18 hrs by twofold serial agar dilution technique; conditions: ATCC 12228, 18 h
Staphylococcus aureus [33] = assay: Antibacterial activity against hospital-acquired methicillin-resistant Staphylococcus aureus 452/11 after 18 hrs by twofold serial agar dilution technique; conditions: 452/11, 18 h
Staphylococcus aureus [34] = assay: Antibacterial activity against hospital-acquired methicillin-resistant Staphylococcus aureus 393/10 after 18 hrs by twofold serial agar dilution technique; conditions: 393/10, 18 h
Staphylococcus aureus [35] = assay: Antibacterial activity against Staphylococcus aureus ATCC 29213 after 18 hrs by twofold serial agar dilution technique; conditions: ATCC 29213, 18 h
Staphylococcus aureus [36] = assay: Antibacterial activity against Staphylococcus aureus ATCC 25923 assessed as zone of inhibition at 400 ug/disc after 18 hrs by disc diffusion method; conditions: ATCC 25923, 18 h, read-out: DIZ
Escherichia coli [37] = assay: Antibacterial activity against Escherichia coli ATCC 10538 after 18 hrs by twofold serial agar dilution technique
Staphylococcus aureus [38] = assay: Antibacterial activity against hospital-acquired methicillin-sensitive Staphylococcus aureus 444/11 after 18 hrs by twofold serial agar dilution technique; conditions: 444/11, 18 h
Staphylococcus aureus [39] = assay: Antibacterial activity against methicillin-resistant Staphylococcus aureus clinical isolate
Pseudomonas aeruginosa [40] = assay: Antibacterial activity against Pseudomonas aeruginosa ATCC 15442 after 18 hrs by twofold serial agar dilution technique
Staphylococcus aureus [41] = assay: Antibacterial activity against hospital-acquired methicillin-resistant Staphylococcus aureus 400/10 after 18 hrs by twofold serial agar dilution technique; conditions: 400/10, 18 h
[42] = system: Staphylococcus epidermidis; assay: Antibacterial activity against Staphylococcus epidermidis ATCC 35984 assessed as zone of inhibition at 400 ug/disc after 18 hrs by disc diffusion method; conditions: ATCC 35984, 18 h, read-out: DIZ

`CC[C@@H](C(=O)[C@@H](C)[C@@H](O)[C@H](C)[C@@H]1O[C@@H]([C@@H](CC)C(=O)O)CC[C@@H]1C)[C@H]1O[C@]2(C=C[C@@H](O)[C@]3(CC[C@@](C)([C@H]4CC[C@](O)(CC)[C@H](C)O4)O3)O2)[C@H](C)C[C@@H]1C` [SALINOMYCIN] showed an MIC (Staphylococcus aureus [1]) of 1 µg/mL (≈ 1.33 µM), a zone of inhibition at 400 µg/disc (Staphylococcus aureus [2]) of 29 mm and a zone of inhibition at 400 µg/disc [3] of 28 mm. It also gave an MIC (Staphylococcus aureus [4]) of 2 µg/mL (≈ 2.66 µM), an MIC (Staphylococcus aureus [5]) of 2 µg/mL (≈ 2.66 µM) and an MIC (Staphylococcus aureus [6]) of 2 µg/mL (≈ 2.66 µM). For the same molecule, the MIC (Staphylococcus aureus [7]) was 1 µg/mL (≈ 1.33 µM), the MIC [8] was 2 µg/mL (≈ 2.66 µM) and the Activity (Escherichia coli [9]) was “inactive”. The MIC (Staphylococcus aureus [10]) was 2 µg/mL (≈ 2.66 µM), the MIC (Staphylococcus aureus [11]) was 2 µg/mL (≈ 2.66 µM) and the Activity (Candida albicans [12]) was “inactive”. The Activity (Pseudomonas aeruginosa [13]) was “inactive”, the Activity (Escherichia coli [14]) was “inactive” and the MIC (Staphylococcus aureus [15]) was 1 µg/mL (≈ 1.33 µM). The Activity (Candida parapsilosis) was “inactive”, the MIC (Staphylococcus aureus [16]) was 2 µg/mL (≈ 2.66 µM) and the MIC (Staphylococcus aureus [17]) was 2 µg/mL (≈ 2.66 µM). The Activity (Pseudomonas aeruginosa [18]) was “inactive”, the Activity (Candida albicans [19]) was “inactive” and the Activity [20] was “inactive”. For the same molecule, the zone of inhibition at 400 µg/disc (Staphylococcus aureus [21]) was 33 mm, the MIC (Staphylococcus aureus [22]) was 2 µg/mL (≈ 2.66 µM) and the MIC (Staphylococcus aureus [23]) was 1 µg/mL (≈ 1.33 µM). The Activity (Proteus vulgaris) was “inactive”, the MIC (Staphylococcus aureus [24]) was 1 µg/mL (≈ 1.33 µM) and the MIC (Staphylococcus aureus [25]) was 1 µg/mL (≈ 1.33 µM). For the same molecule, the MIC (Staphylococcus aureus [26]) was 1 µg/mL (≈ 1.33 µM), the zone of inhibition at 400 µg/disc (Staphylococcus aureus [27]) was 30 mm and the MIC (Staphylococcus aureus [28]) was 2 µg/mL (≈ 2.66 µM). For the same molecule, the MIC (Staphylococcus aureus [29]) was 2 µg/mL (≈ 2.66 µM), the MIC (Staphylococcus aureus [30]) was 2 µg/mL (≈ 2.66 µM) and the MIC (Staphylococcus aureus [31]) was 2 µg/mL (≈ 2.66 µM). The MIC [32] was 2 µg/mL (≈ 2.66 µM), the MIC (Staphylococcus aureus [33]) was 1 µg/mL (≈ 1.33 µM) and the MIC (Staphylococcus aureus [34]) was 2 µg/mL (≈ 2.66 µM). The MIC (Staphylococcus aureus [35]) was 2 µg/mL (≈ 2.66 µM), the zone of inhibition at 400 µg/disc (Staphylococcus aureus [36]) was 31 mm and the Activity (Escherichia coli [37]) was “inactive”. For the same molecule, the MIC (Staphylococcus aureus [38]) was 2 µg/mL (≈ 2.66 µM), the MIC (Staphylococcus aureus [39]) was 1 µg/mL (≈ 1.33 µM) and the Activity (Pseudomonas aeruginosa [40]) was “inactive”. The MIC (Staphylococcus aureus [41]) was 1 µg/mL (≈ 1.33 µM) and the zone of inhibition at 400 µg/disc [42] was 30 mm.
